The term MIC denotes the smallest concentration in the dilution series that meets the test's criterion for growth inhibition. Higher therefore signals a need for much substance. One may read the MBC as the smallest concentration meeting the test's criterion for killing. Low readings indicate more potent killing, high ones less potent killing.

The structures appear in SMILES notation. In brackets after ≈: the same amount, converted by molar mass.

The test system of data set [1] is Staphylococcus aureus. Kind of data set: Antibacterial activity against methicillin-resistant Staphylococcus aureus 2658 RCMB after 20 hrs by broth microdilution assay. In kind it is functional.
Data set [2] concerns Staphylococcus aureus. Nature of the data set: Bactericidal activity against Staphylococcus aureus USA300 NRS384 incubated for 20 hrs followed by re-plating on tryptic soy agar plates at 37 degC for 18 hrs by broth microdilution assay. The format is functional. (In general: Broth dilution looks for growth in wells or tubes with falling amounts of substance.)
In data set [3] the test system is Staphylococcus aureus. Nature of the data set: Bactericidal activity against vancomycin-resistant Staphylococcus aureus VRSA12 incubated for 20 hrs followed by re-plating on tryptic soy agar plates at 37 degC for 18 hrs by broth microdilution assay. In kind it is functional.
Data set [4] has as its system Staphylococcus aureus. Kind of data set: Antibacterial activity against Staphylococcus aureus after 20 hrs by broth microdilution assay. In kind it is functional.
Data set [5] has as its system Staphylococcus aureus. Nature of the data set: Antibacterial activity against methicillin-resistant Staphylococcus aureus after 20 hrs by broth microdilution assay. In kind it is functional.
For data set [6], the system named is Enterococcus faecalis. Nature of the data set: Antibacterial activity against vancomycin-resistant Enterococcus faecalis ATCC 51299 after 20 hrs by broth microdilution assay. The format is functional. Particulars: ATCC 51299, 20 h.
The test system of data set [7] is Staphylococcus aureus. Kind of data set: Antibacterial activity against vancomycin-resistant Staphylococcus aureus VRSA10 after 20 hrs by broth microdilution assay. The format is functional. The following applies: VRSA10, 20 h.
The subject of data set [8] is Staphylococcus aureus. Kind of data set: Bactericidal activity against methicillin-resistant Staphylococcus aureus NRS386 incubated for 20 hrs followed by re-plating on tryptic soy agar plates at 37 degC for 18 hrs by broth microdilution assay. The format is functional.
Data set [9] concerns Staphylococcus epidermidis. Nature of the data set: Antibacterial activity against methicillin-resistant Staphylococcus epidermidis NRS101 after 20 hrs by broth microdilution assay. Particulars: NRS101, 20 h. In kind it is functional.
In data set [10] the test system is Staphylococcus aureus. Kind of data set: Bactericidal activity against Staphylococcus aureus USA400 NRS123 incubated for 20 hrs followed by re-plating on tryptic soy agar plates at 37 degC for 18 hrs by broth microdilution assay. The format is functional.
In data set [11] the test system is Enterococcus faecium. Nature of the data set: Bactericidal activity against vancomycin-resistant Enterococcus faecium ATCC 700221 incubated for 20 hrs followed by re-plating on tryptic soy agar plates at 37 degC for 18 hrs by broth microdilution assay. The format is functional.
The subject of data set [12] is Streptococcus pneumoniae. Kind of data set: Antibacterial activity against methicillin-resistant Streptococcus pneumoniae ATCC 700677 after 20 hrs by broth microdilution assay. The format is functional. The following applies: ATCC 700677, 20 h.
A further data set deals with Caco-2. Kind of data set: Cytotoxicity against human Caco2 cells assessed as effect on cell viability up to 64 ug/ml after 2 hrs by MTS assay. The format is cell-based. The following applies: caco-2, 2 h. (Formazan colour is commonly taken as a measure of viable cells.)
Data set [13] deals with Enterococcus faecium. Kind of data set: Antibacterial activity against vancomycin-resistant Enterococcus faecium ATCC 700221 after 20 hrs by broth microdilution assay. The following applies: ATCC 700221, 20 h. In kind it is functional.
Data set [14] concerns Staphylococcus aureus. Kind of data set: Antibacterial activity against methicillin-resistant Staphylococcus aureus NRS386 after 20 hrs by broth microdilution assay. The format is functional. Particulars: NRS386, 20 h.
Data set [15] concerns Staphylococcus aureus. Kind of data set: Bactericidal activity against linezolid-resistant Staphylococcus aureus NRS119 incubated for 20 hrs followed by re-plating on tryptic soy agar plates at 37 degC for 18 hrs by broth microdilution assay. In kind it is functional.
Data set [16] relates to Staphylococcus epidermidis. Kind of data set: Bactericidal activity against methicillin-resistant Staphylococcus epidermidis NRS101 incubated for 20 hrs followed by re-plating on tryptic soy agar plates at 37 degC for 18 hrs by broth microdilution assay. The format is functional.
Data set [17] concerns Staphylococcus aureus. Kind of data set: Bactericidal activity against methicillin-sensitive Staphylococcus aureus NRS107 incubated for 20 hrs followed by re-plating on tryptic soy agar plates at 37 degC for 18 hrs by broth microdilution assay. In kind it is functional.
Data set [18] relates to Streptococcus pneumoniae. Nature of the data set: Bactericidal activity against cephalosporin-resistant Streptococcus pneumoniae ATCC 51916 incubated for 20 hrs followed by re-plating on tryptic soy agar plates at 37 degC for 18 hrs by broth microdilution assay. The format is functional.
In data set [19] the test system is Streptococcus pneumoniae. Nature of the data set: Antibacterial activity against cephalosporin-resistant Streptococcus pneumoniae ATCC 51916 after 20 hrs by broth microdilution assay. The format is functional. The following applies: ATCC 51916, 20 h.
The subject of data set [20] is Streptococcus pneumoniae. Kind of data set: Bactericidal activity against methicillin-resistant Streptococcus pneumoniae ATCC 700677 incubated for 20 hrs followed by re-plating on tryptic soy agar plates at 37 degC for 18 hrs by broth microdilution assay. The format is functional.
Data set [21] relates to Staphylococcus aureus. Kind of data set: Bactericidal activity against vancomycin-resistant Staphylococcus aureus VRSA10 incubated for 20 hrs followed by re-plating on tryptic soy agar plates at 37 degC for 18 hrs by broth microdilution assay. In kind it is functional.
Data set [22] concerns Listeria monocytogenes. Nature of the data set: Antibacterial activity against Listeria monocytogenes ATCC 19111 after 20 hrs by broth microdilution assay. The format is functional. The following applies: ATCC 19111, 20 h.
Data set [23] deals with Staphylococcus aureus. Nature of the data set: Antibacterial activity against vancomycin-resistant Staphylococcus aureus VRSA12 after 20 hrs by broth microdilution assay. In kind it is functional. Particulars: VRSA12, 20 h.
Data set [24] deals with Enterococcus faecalis. Nature of the data set: Bactericidal activity against vancomycin-resistant Enterococcus faecalis ATCC 51299 incubated for 20 hrs followed by re-plating on tryptic soy agar plates at 37 degC for 18 hrs by broth microdilution assay. In kind it is functional.
Data set [25] deals with Staphylococcus aureus. Kind of data set: Bactericidal activity against methicillin-resistant Staphylococcus aureus NRS385 incubated for 20 hrs followed by re-plating on tryptic soy agar plates at 37 degC for 18 hrs by broth microdilution assay. The format is functional.
Data set [26] relates to Listeria monocytogenes. Nature of the data set: Bactericidal activity against Listeria monocytogenes ATCC 19111 incubated for 20 hrs followed by re-plating on tryptic soy agar plates at 37 degC for 18 hrs by broth microdilution assay. The format is functional.
In data set [27] the test system is Staphylococcus aureus. Kind of data set: Antibacterial activity against methicillin-resistant Staphylococcus aureus NRS385 after 20 hrs by broth microdilution assay. Particulars: NRS385, 20 h. In kind it is functional.

`CCCCCCCOc1ccc(-c2nc(C)c(-c3ccnc(NC(=N)N4CCOCC4)n3)s2)cc1` displayed a minimum inhibitory concentration (MIC) in the data set with Staphylococcus aureus [1] of 6.25 µg/mL (≈ 12.6 µM).

With `CCCCCCCCOc1ccc(-c2nc(C)c(-c3ccnc(NC(=N)N4CCN(C)CC4)n3)s2)cc1`, the MBC against Staphylococcus aureus [2] turned out to be 16 µg/mL (≈ 30.7 µM); with Staphylococcus aureus [3] it was 16 µg/mL (≈ 30.7 µM); against Staphylococcus aureus [8], 16 µg/mL (≈ 30.7 µM); against Staphylococcus aureus [10] it was 32 µg/mL (≈ 61.3 µM); in the data set with Enterococcus faecium [11] it was 16 µg/mL (≈ 30.7 µM); in the data set with Staphylococcus aureus [15], 32 µg/mL (≈ 61.3 µM). Moreover, the minimal bactericidal concentration (MBC) in data set [16] is 8 µg/mL (≈ 15.3 µM); in the data set with Staphylococcus aureus [17] it was > 64 µg/mL; with Streptococcus pneumoniae [18] it was 32 µg/mL (≈ 61.3 µM); in the data set with Streptococcus pneumoniae [20], 32 µg/mL (≈ 61.3 µM); in the data set with Staphylococcus aureus [21], 8 µg/mL (≈ 15.3 µM); with Enterococcus faecalis [24], 64 µg/mL (≈ 123 µM). Further, the values for the MBC against Staphylococcus aureus [25] and in the data set with Listeria monocytogenes [26] were 16 µg/mL (≈ 30.7 µM) and 8 µg/mL (≈ 15.3 µM), respectively. The MIC in the data set with Staphylococcus aureus [4] was 16 µg/mL (≈ 30.7 µM); against Staphylococcus aureus [5] it was 16 to 32 µg/mL (≈ 30.7 to 61.3 µM); with Enterococcus faecalis [6], 16 µg/mL (≈ 30.7 µM); with Staphylococcus aureus [7] it was 8 µg/mL (≈ 15.3 µM); in data set [9] it was 8 µg/mL (≈ 15.3 µM); against Streptococcus pneumoniae [12] it was 16 µg/mL (≈ 30.7 µM). In addition, the MIC with Enterococcus faecium [13] amounted to 16 µg/mL (≈ 30.7 µM); against Staphylococcus aureus [14] it was 16 µg/mL (≈ 30.7 µM); in the data set with Streptococcus pneumoniae [19], 32 µg/mL (≈ 61.3 µM); with Listeria monocytogenes [22] it was 4 µg/mL (≈ 7.67 µM); in the data set on Staphylococcus aureus [23], 16 µg/mL (≈ 30.7 µM); with Staphylococcus aureus [1], 0.78 µg/mL (≈ 1.5 µM). The lowest concentration to inhibit growth with Staphylococcus aureus [27] (MIC) was 16 µg/mL (≈ 30.7 µM). In addition, the Activity result with Caco-2 is reported as “Non-Toxic”.

As to `CCCCCCCOc1ccc(-c2nc(C)c(-c3ccnc(NC(=N)NC)n3)s2)cc1`, the MIC against Staphylococcus aureus [1] is > 50 µg/mL.

Take `CCCCCCCCOc1ccc(-c2nc(C)c(-c3ccnc(NC)n3)s2)cc1`: the MIC against Staphylococcus aureus [1] is > 50 µg/mL.

`CCCCCCCCOc1ccc(-c2nc(C)c(-c3ccnc(NC(=N)N4CCOCC4)n3)s2)cc1` came in with an MIC against Staphylococcus aureus [1] of 6.25 µg/mL (≈ 12.3 µM).

As to `CCCCCCCCOc1ccc(-c2nc(C)c(-c3ccnc(N)n3)s2)cc1`, in the data set on Staphylococcus aureus [1], the MIC is > 50 µg/mL.

In the data set on Staphylococcus aureus [1], `CCCCCCCOc1ccc(-c2nc(C)c(-c3ccnc(NC(=N)N)n3)s2)cc1` returned an MIC of 1.56 µg/mL (≈ 3.67 µM).

With `CN[C@H](CC(C)C)C(=O)N[C@H]1C(=O)N[C@@H](CC(N)=O)C(=O)N[C@H]2C(=O)N[C@H]3C(=O)N[C@H](C(=O)N[C@H](C(=O)O)c4cc(O)cc(O)c4-c4cc3ccc4O)[C@H](O)c3ccc(c(Cl)c3)Oc3cc2cc(c3O[C@@H]2O[C@H](CO)[C@@H](O)[C@H](O)[C@H]2O[C@H]2C[C@](C)(N)[C@H](O)[C@H](C)O2)Oc2ccc(cc2Cl)[C@H]1O` [VANCOMYCIN], the MBC against Staphylococcus aureus [2] is 1 µg/mL (≈ 0.69 µM); against Staphylococcus aureus [3], > 64 µg/mL; in the data set with Staphylococcus aureus [8] it was 1 µg/mL (≈ 0.69 µM); in the data set on Staphylococcus aureus [10] it was 1 µg/mL (≈ 0.69 µM); with Enterococcus faecium [11], > 64 µg/mL; against Staphylococcus aureus [15], 1 µg/mL (≈ 0.69 µM). In addition, the MBC was 2 µg/mL (≈ 1.38 µM) against Staphylococcus aureus [17], > 64 µg/mL against Staphylococcus aureus [21], 64 µg/mL (≈ 44.2 µM) in the data set on Enterococcus faecalis [24] and 1 µg/mL (≈ 0.69 µM) with Staphylococcus aureus [25]. The MIC in the data set with Enterococcus faecalis [6] was 16 µg/mL (≈ 11 µM); with Staphylococcus aureus [7], > 64 µg/mL; against Streptococcus pneumoniae [12], 2 µg/mL (≈ 1.38 µM); in the data set with Enterococcus faecium [13], > 64 µg/mL; in the data set on Streptococcus pneumoniae [19], 2 µg/mL (≈ 1.38 µM); against Listeria monocytogenes [22] it was 1 µg/mL (≈ 0.69 µM). Moreover, the MIC is > 64 µg/mL in the data set on Staphylococcus aureus [23] and 1.56 µg/mL (≈ 1.08 µM) in the data set with Staphylococcus aureus [1].

As for `CCCCCCCOc1ccc(-c2nc(C)c(-c3ccnc(N)n3)s2)cc1`, the MIC with Staphylococcus aureus [1] was > 50 µg/mL.
